Test results taken from ChEMBL document CHEMBL4834417, “Diverse Polycyclic Polyprenylated Acylphloroglucinol Congeners with Anti-Nonalcoholic Steatohepatitis Activity from Hypericum forrestii” (J Nat Prod, 2021).
Calls of active or inactive are those of the source.

Assays:
Assay type in all cases: functional, cell-based
L02 [1] = test: Anti-nonalcoholic steatohepatitis activity in FFA-induced human L02 cells assessed as reduction in lipid droplets at 5 uM after 48 hrs by Oil red O staining based assay
L02 [2] = test: Anti-nonalcoholic steatohepatitis activity in FFA-induced human L02 cells assessed as reduction in lipid droplets after 48 hrs by Oil red O staining based assay; conditions: dose 5-10 µM
L02 [3] = test: Anti-nonalcoholic steatohepatitis activity in FFA-induced human L02 cells assessed as downregulation of CD36 mRNA expression at 10 uM by QRT-PCR analysis
L02 [4] = test: Anti-nonalcoholic steatohepatitis activity in FFA-induced human L02 cells assessed as downregulation of FASN mRNA expression at 10 uM by QRT-PCR analysis
L02 [5] = test: Anti-nonalcoholic steatohepatitis activity in FFA-induced human L02 cells assessed as upregulation of PPARalpha mRNA expression at 10 uM by QRT-PCR analysis
L02 [6] = test: Anti-nonalcoholic steatohepatitis activity in FFA-induced human L02 cells assessed as upregulation of ACOX1 mRNA expression at 10 uM by QRT-PCR analysis

Measured: Activity

CC(C)=CCC[C@]1(C)[C@@H](CC=C(C)C)C[C@]23C[C@H](C(C)(C)O)OC2=C(CC=C(C)C)C(=O)[C@@]1(C(=O)c1ccccc1)C3=O
active: L02 [1] | L02 [2] Dose-Dependent Effect | L02 [3] | L02 [4] | L02 [5] | L02 [6]

CC(C)=CCC/C(C)=C/C[C@]1(CC=C(C)C)C(=O)C(C(=O)c2ccccc2)=C2OC(C)(C)[C@@H]3C[C@]23C1=O
active: L02 [1] | L02 [2] Dose-Dependent Effect | L02 [3] | L02 [4] | L02 [5] | L02 [6]
